Source: US9376406B2, “uPAR-uPA interaction inhibitors and methods for treating cancer” (Indiana University Research and Technology Corporation, priority 2011, dated 2016)
“Also recorded” adds a separate entry of the source.

What was measured:
uPAR = biological target: T1, uPAR (Homo sapiens, UniProt Q03405); experiment: Fluorescence polarization, direct binding to uPAR
T1 construct: uPAR comprising amino acids 1-277 was expressed in Drosophila S2 cells; made in house; host or cells: Drosophila S2 cells
Description: Fluorescence polarization in the presence and absence of protein and were measured using identical conditions as described above.
The mP was evaluated in the a presence and absence of competing 10 μM GFD.

H1299 cells [1] = experiment: Immunofluorescence imaging of surface uPA and uPAR; type: cell-based, human; conditions: H1299, 100 μM, 30 min, vs DMSO control
Description: (§1) Immunofluorescence Imaging. An immunofluorescence approach was employed to establish the specificity of the compounds. This consisted of using a fluorescently labeled secondary antibody to probe for the presence of an anti-uPA antibody bound to uPA at the cell surface of MDA-MB-231 and H1299 cancer cells. […] Non-specific bindings were blocked with 5% normal goat serum, 5% BSA, 0.01% Triton X-100 in PBS at RT for 1 h, the cells were then incubated overnight at 4° C. with rabbit polyclonal anti-human uPA or mouse monoclonal anti-human uPAR antibodies (both at a dilution of 1:100 in 1% BSA/PBS). After another washing step with PBS three times, the cells were incubated with anti-rabbit IgG conjugated with Alexa 594 Texas Red (Invitrogen Corporation, Carlsbad, Calif.) or goat anti-mouse IgG conjugated with Alexa Fluor 488 (Invitrogen Corporation, Carlsbad, Calif.), both at a dilution of 1:1000 in 1% BSA/PBS at RT for 1 h in the dark. Images were acquired using a Nikon swept-filed confocal microscope.
(§2) Endogenous uPAR and uPA in the non-small cell lung cancer (NSCLC) cell line H1299 and in a breast cancer cell line MDA-MB-231 were immunostained with selective antibodies and visualized by staining with fluorescently-conjugated secondary antibodies. Cells are stained with (a) a monoclonal antibody against uPAR or (b) a polyclonal antibody against uPA.
(§3) In cells with clear surface staining, the surface of each cell was outlined using uPAR staining and then the pixel immunodensity for uPAR and uPA were determined using Nikon elements software in the outlined regions. Only cells where the cell membrane was clearly discernible were included in the analysis. Each value represents the mean±S.E. from 26-30 cells taken from three different fields from two independent samples. *significant difference from the DMSO control (p<0.001, Student's t test). In the absence of any compound (0.1% DMSO; vehicle control) both uPAR and uPA were detected in large intracellular clusters as well as on surface membranes of MDA-MB-231 cells.

MDA-MB-231 cells [2] = experiment: Immunofluorescence imaging of surface uPA and uPAR; type: cell-based, human; conditions: MDA-MB-231, 100 μM, 30 min, vs DMSO control
Description: as §1, §2, §3

H1299 cells [3] = experiment: Invasion assay (Matrigel invasion chamber); type: cell-based, human
Description: (§4) Invasion Assay. Invasion assays are performed using the Biocoat Matrigel invasion chamber (BD Biosciences, Bedford, Mass.) according to the manufacturer's protocol. The undersurface of the inserts were coated with 30 ng/μl of fibronectin at 4° C. overnight. The filters were equilibrated with 0.5 ml serum-free medium for 2 h. After 4 h of serum starvation, cells were harvested and 5×10^4 cells/500 μl were plated onto the upper chamber of a Transwell filter in medium containing 0.1% FBS and the indicated compounds. 500 μl of 10% FBS medium containing the same amount of compounds or DMSO control were added to the lower chamber. After a 24 h incubation at 37° C. in 5% CO2, the filters were fixed and the number of cells that had invaded was determined as described for the migration assay.
(§5) Testing of the effects of IPR-465 on processes critical for metastasis in cell culture, starting with invasion, was undertaken. A Boyden chamber apparatus was used and results are shown in FIG. 3(a), where the bar groups correspond, from left to right, to H1299 invasion, H1299 cytotoxicity, MDA-MB-231 invasion, MDA-MB-231 cytotoxicity, and in FIG. 3(b), where the bar groups correspond, from left to right, to H1299 Boyden Chamber, H1299 wound healing, H1299 cytotoxicity, MDA-MB-231 Boyden Chamber, MDA-MB-231 wound healing, MDA-MB-231 cytotoxicity.
(§6) Ten fields of unit area on each membrane were counted for cell numbers (magnification, 200×). […] The effect of the compound appears to be more pronounced in MDA-MB-231 cells compared with H1299. The level of toxicity of the compounds is measured at each concentration within the timescale of the invasion experiment to ensure that the observed effects are not due to cytotoxicity (FIG. 3(a)).
(§7) MDA-MB-231 cells were transfected with siRNAs for uPAR, control siRNA (control) or with transfection reagent only (mock). After 48 h, cells were lysed and analysed by immunoblotting.

MDA-MB-231 cells [4] = experiment: Invasion assay (Matrigel invasion chamber); type: cell-based, human
Description: as §4, §5, §6, §7

T1 sequence (Q03405 23-299): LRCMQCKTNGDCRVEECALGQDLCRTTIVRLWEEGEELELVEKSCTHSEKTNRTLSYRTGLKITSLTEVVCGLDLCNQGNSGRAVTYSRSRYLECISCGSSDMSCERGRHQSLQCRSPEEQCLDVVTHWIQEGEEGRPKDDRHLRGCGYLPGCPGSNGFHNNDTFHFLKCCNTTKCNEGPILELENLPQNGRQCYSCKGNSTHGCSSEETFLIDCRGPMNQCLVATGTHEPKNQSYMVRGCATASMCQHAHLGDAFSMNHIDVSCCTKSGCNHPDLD

With `CC1CC(C)CN(c2cc(Nc3ccccc3C(=O)O)c3c4c(onc24)-c2ccccc2C3=O)C1` (stereo not shown) [IPR-456] the Kd (uPAR; direct binding to uPAR by fluorescence polarization) was 0.312 µM, the “fluorescence polarization (mP) with increasing uPAR concentration” value (uPAR; excitation 530 nm, emission 600 nm) was “showed a dose response with increasing mP” and the “change in polarization with increasing uPAR” value (uPAR; in the presence of 10 μM competing GFD) was “no change in the polarization was detected”. The “immunostaining pattern of uPAR” value (H1299 cells [1]) was “no change in the immunostaining pattern of uPAR”, the “uPA staining at the cell surface” value (H1299 cells [1]) was “significant reduction of uPA staining at the cell surface; also recorded: impairs binding of uPA to uPAR at the cell membrane” and the “immunostaining pattern of uPAR” value (MDA-MB-231 cells [2]) was “no change in the immunostaining pattern of uPAR”. The “uPA staining at the cell surface” value (MDA-MB-231 cells [2]) was “significant reduction of uPA staining at the cell surface; also recorded: impairs binding of uPA to uPAR at the cell membrane”, the “number of cells able to invade through the membrane” value (H1299 cells [3]; H1299) was “dose-dependent reduction” and the influence on invasion (H1299 cells [3]; H1299 with siRNA knockdown of uPAR) was “no additional influence on invasion”. The IC50 (H1299 cells [3]; Homo sapiens, NCI-H1299) was roughly 50 µM, the IC50 (MDA-MB-231 cells [4]; Homo sapiens, MDA-MB-231) was roughly 50 µM and the “number of cells able to invade through the membrane” value (MDA-MB-231 cells [4]; MDA-MB-231) was “dose-dependent reduction”. For the same compound, the influence on invasion (MDA-MB-231 cells [4]; MDA-MB-231 with siRNA knockdown of uPAR) was “no additional influence on invasion”.
